Assay results taken from US20120301468A1, “ANTI-MN ANTIBODIES AND METHODS OF USING SAME” (BAYER HEALTHCARE LLC, priority 2005, published 2012).

Tested on: PC3 mm2 human prostate tumor xenograft
Experiment: PC3 mm2 subcutaneous xenograft model
Assay type: in vivo, NCr nu/nu mice
Details: for animals showing responses: PC3MM2
Method: The in vivo anti-tumor effect of 3ee9/MMAE was examined in 6 different human xenograft tumor models. These models were established through subcutaneous implantation of human tumor cells into female athymic NCr (nu/nu) mice (Taconic, N.Y.). […] PBS was used as a vehicle, and dosing solutions were prepared fresh daily. The dosing volume was 0.1 mL/10 g (10 mL/kg).
The length and width of each tumor were measured using an electronic caliper 2-3 times per week, and tumor weights (mg) were calculated based on the formula of [length (mm)×width (mm)^2]/2. […] Tumor growth inhibition (TGI) was calculated as (1-T/C)×100, where T=final tumor weights from a treated group after the last dose, and C=final tumor weights from the control group after the last dose. In addition, anti-tumor efficacy was measured as the incidence of responses (or responders or regressions) defined as tumors with ≦50% of their initial size. A minimum duration of 7 days is required for a response to be considered durable.
The anti-tumor activity of 3ee9/MMAE was next evaluated against human prostate (PC-3 mm2) and CRC (Colo-205) tumor xenografts. Female NCr nu/nu mice were implanted subcutaneously (s.c.) either with 5×10^6 PC3 mm2 or Colo-205 cells. Treatment was initiated when tumors were of an average size of approximately 125-150 mg. The general health of mice was monitored and recorded daily. Tumor dimensions and body weights were recorded twice a week starting with the first day of treatment.
In the PC3 mm2 and Colo-205 studies, 3ee9/MMAE was administered intravenously (i.v.) once every 4th day for a total of 3 injections (Q4Dx3) at doses of 1, 3, 10 and 30 mg/kg and 1.25, 2.5, 5 and 10 mg/kg, respectively.

With “3ee9/MMAE: human anti-MN IgG1 antibody 3ee9 conjugated to Monomethylauristatin E (MMAE)” the anti-tumor effects (PC3-mm2 human prostate xenograft model) was “anti-tumor effects were seen”, the animals showing responses (3 mg/kg) was 20% and the animals showing responses (10 and 30 mg/kg i.v. Q4Dx3) was 100%. The tolerability (PC3 mm2 (1, 3, 10, 30 mg/kg) and Colo-205 (1.25, 2.5, 5, 10 mg/kg) studies, i.v. Q4Dx3) was “well tolerated at all doses evaluated”.
